In PubChem BioAssay (NCI) one finds GI50 and TGI data, which are given here for 13 molecules.

Some test systems named below: RPMI-8226 leukemia; U251 CNS; OVCAR-8 ovarian; SK-MEL-2 melanoma; 786-0 renal; HCT-15 colon; SW-620 colon; SF-268 CNS; RXF 393 renal; HCC-2998 colon.
Assay in all cases: inhibition of tumour cell growth, NCI panel, 48 h

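96-well plates; 48 h exposure; 5 concentrations. Endpoints by linear interpolation between flanking doses. Not reached: highest tested concentration assigned. GI50 = concentration required for 50% inhibition of growth. The concentration for full growth arrest is given as TGI.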 Bounds are passed on as bounds.

On to `[CH3][Hg]/[N]=C(/N)NC#N`, for which the GI50 with RPMI-8226 leukemia was 2.62 µM; in the assay on U251 CNS, 23.6 µM; with OVCAR-8 ovarian, 3.63 µM; in the assay on SK-MEL-2 melanoma, 3.65 µM; in the assay with 786-0 renal, 10.2 µM; in the assay on HCT-15 colon it was 3.02 µM. The GI50 in the assay on SW-620 colon is 2.23 µM; with SF-268 CNS, 16.3 µM; in the assay with RXF 393 renal, 1.4 µM. Further, the TGI in the assay with RPMI-8226 leukemia was over 100 µM; with U251 CNS, 56 µM; in the assay with OVCAR-8 ovarian it was 16.1 µM; in the assay with SK-MEL-2 melanoma, 26.7 µM; with 786-0 renal, 22.4 µM; with HCT-15 colon it was 12.1 µM. Moreover, the TGI with SW-620 colon is 5.28 µM; in the assay with SF-268 CNS, 33.3 µM; with RXF 393 renal it was 5.13 µM.
Regarding `CN1C2(c3ccccc3)C(C(=O)c3ccccc3)=C(C(=O)c3ccccc3)C1(c1ccccc1)c1c(-c3ccccc3)sc(-c3ccccc3)c12`, the TGI in the assay on RPMI-8226 leukemia, in the assay on U251 CNS, in the assay on OVCAR-8 ovarian, in the assay on HCC-2998 colon, in the assay with 786-0 renal and in the assay on HCT-15 colon was over 100 µM in each case. For the same molecule, the TGI in the assay on SW-620 colon, with SF-268 CNS and with RXF 393 renal was over 100 µM each time.
On to `CC1=CC[C@@H](C(C)(C)O)C[C@@H]1O`, for which the TGI in the assay on U251 CNS, with OVCAR-8 ovarian, in the assay with HCC-2998 colon, with SK-MEL-2 melanoma, with 786-0 renal and with HCT-15 colon was over 5000 µM throughout. The TGI with SW-620 colon, in the assay on SF-268 CNS and with RXF 393 renal was over 5000 µM throughout.
For `CC(=O)O[C@@H]1CC[C@@]2(C)C(=O)C34C[C@@]5(C)C([C@@H](C)CCCC(C)C)CCC5(C)[C@](O)(O3)C(=O)[C@H]4C2C1(C)C` (some centres undefined), the TGI in the assay on RPMI-8226 leukemia stood at 38.9 µM; with U251 CNS, 27.4 µM; in the assay with OVCAR-8 ovarian, 32.9 µM; in the assay with HCC-2998 colon, 23.5 µM; with SK-MEL-2 melanoma, 37 µM; in the assay with 786-0 renal it was 25.6 µM. The TGI with HCT-15 colon was determined as 26.5 µM; in the assay with SW-620 colon, 24.5 µM; in the assay on SF-268 CNS, 34.9 µM.
In the case of `N#CCCN(c1ccc(C=O)cc1)S(=O)(=O)c1ccccc1`, the TGI in the assay on RPMI-8226 leukemia, in the assay on U251 CNS, in the assay on OVCAR-8 ovarian, with HCC-2998 colon, with SK-MEL-2 melanoma and in the assay with 786-0 renal was over 100 µM throughout. The TGI in the assay with HCT-15 colon, in the assay on SW-620 colon and with SF-268 CNS was over 100 µM in each case.
Consider `COc1ccc2nc3ccccc3c(NCCN(CCCl)CCCl)c2c1`, for which the TGI in the assay on U251 CNS is 2.31 µM; in the assay with OVCAR-8 ovarian, 2.9 µM; in the assay with HCC-2998 colon, 2.73 µM; in the assay on 786-0 renal, 2.4 µM; with SW-620 colon, 2.51 µM; with SF-268 CNS, 5.74 µM.
Turning to `O=C(O)CCC1c2[nH]c3ccccc3c2CCN1Cc1ccccc1` (centres undefined), the TGI with U251 CNS, in the assay on OVCAR-8 ovarian, with HCC-2998 colon, in the assay with SK-MEL-2 melanoma, in the assay with 786-0 renal and in the assay with HCT-15 colon was over 100 µM throughout. In addition, the TGI in the assay on SW-620 colon and with SF-268 CNS was over 100 µM each time.
For `O=C(/C=C/C=C/c1ccc2c(c1)OCO2)N/N=C\c1ccc(O)cc1O`, the GI50 in the assay with U251 CNS was 1.64 µM; with OVCAR-8 ovarian, 2.67 µM; in the assay with HCC-2998 colon, 2.44 µM; in the assay with SK-MEL-2 melanoma it was 5.51 µM; in the assay with 786-0 renal, 2.89 µM; with HCT-15 colon, 0.776 µM. Besides, the GI50 is 2.83 µM in the assay with SW-620 colon, 1.73 µM with SF-268 CNS and 1.74 µM with RXF 393 renal. Moreover, the TGI stood at 23 µM in the assay with U251 CNS; 29.9 µM with OVCAR-8 ovarian; 18.3 µM in the assay on HCC-2998 colon; 27 µM in the assay on SK-MEL-2 melanoma; 11.8 µM in the assay on 786-0 renal; 21.4 µM in the assay on HCT-15 colon. The results for the TGI with SW-620 colon, in the assay with SF-268 CNS and in the assay with RXF 393 renal were 19.9 µM, 17.1 µM and 6.88 µM, respectively.
`COC1C(=O)CCC2(CO2)C1(O)C1(C)OC1CC=C(C)C` (centres undefined): the TGI in the assay on U251 CNS was over 100 µM; in the assay on OVCAR-8 ovarian, over 100 µM; in the assay on HCC-2998 colon it was 46.5 µM; in the assay on SK-MEL-2 melanoma, over 100 µM; in the assay with 786-0 renal, over 100 µM; in the assay with HCT-15 colon, over 100 µM. In addition, the TGI with SW-620 colon, in the assay with SF-268 CNS and in the assay on RXF 393 renal was over 100 µM throughout.
Regarding `CCOC(=O)C(=O)C(C#N)c1ccc(Cl)cc1` (centres undefined), the TGI in the assay with RPMI-8226 leukemia, in the assay on U251 CNS, in the assay on OVCAR-8 ovarian, in the assay with SK-MEL-2 melanoma, with 786-0 renal and in the assay with HCT-15 colon was over 100 µM throughout. The TGI in the assay on SW-620 colon, with SF-268 CNS and with RXF 393 renal was over 100 µM in each case.
On to `COc1cc2c(cc1-c1coc3cc(O)ccc3c1=O)OCO2`, for which the TGI in the assay with RPMI-8226 leukemia is 77.5 µM; with U251 CNS, 45.9 µM; in the assay on OVCAR-8 ovarian, 40.1 µM; in the assay on HCC-2998 colon, over 100 µM; with SK-MEL-2 melanoma it was over 100 µM; with 786-0 renal, 29.9 µM. Moreover, the TGI in the assay on HCT-15 colon was 35.6 µM; in the assay on SW-620 colon, over 100 µM; in the assay with SF-268 CNS it was 43.6 µM.
Turning to `COc1cc(C2CC(c3cccc(Nc4ccnc5cc(Cl)ccc45)c3)=NN2c2ccccc2)cc(OC)c1OC` (centres undefined), the GI50 is 5.33 µM in the assay on RPMI-8226 leukemia; 7.68 µM in the assay with OVCAR-8 ovarian; 5.32 µM in the assay on HCC-2998 colon; 8.78 µM with SK-MEL-2 melanoma; 5.88 µM with 786-0 renal; 2.91 µM with HCT-15 colon. Also, the GI50 was 2.44 µM in the assay on SW-620 colon, 75.5 µM in the assay on SF-268 CNS and 8.37 µM with RXF 393 renal. For the same molecule, the TGI with RPMI-8226 leukemia was over 100 µM; in the assay on OVCAR-8 ovarian, over 100 µM; in the assay with HCC-2998 colon, 33.8 µM; in the assay with SK-MEL-2 melanoma it was 75.6 µM; in the assay on 786-0 renal, over 100 µM; with HCT-15 colon, over 100 µM. Further, the TGI with SW-620 colon, in the assay on SF-268 CNS and in the assay on RXF 393 renal was over 100 µM throughout.
Turning to `O=C(CC1(O)C(=O)Nc2ccccc21)c1ccccc1O` (centres undefined), the TGI with RPMI-8226 leukemia, in the assay with OVCAR-8 ovarian, with SK-MEL-2 melanoma, in the assay on 786-0 renal, in the assay with HCT-15 colon and in the assay on SW-620 colon was over 100 µM throughout. For the same molecule, the TGI in the assay with SF-268 CNS and in the assay on RXF 393 renal was over 100 µM in each case.
